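48-hour exposure; five concentrations; linearly interpolated endpoints. At the GI50, growth is halved. TGI marks complete inhibition of growth.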
Experiments:
Assay in all cases: inhibition of tumour cell growth, NCI panel, 48 h
CCRF-CEM leukemia = tested on: CCRF-CEM leukemia
HCC-2998 colon = tested on: HCC-2998 colon
HT29 colon = tested on: HT29 colon
MDA-N = tested on: MDA-N
NCI-H460 lung = tested on: NCI-H460 lung
NCI-H522 lung = tested on: NCI-H522 lung
UACC-257 melanoma = tested on: UACC-257 melanoma
HOP-92 NSCLC = tested on: HOP-92 NSCLC
HCT-15 colon = tested on: HCT-15 colon

SMILES	TGI (CCRF-CEM leukemia) [µM]	TGI (HCC-2998 colon) [µM]	TGI (HT29 colon) [µM]	TGI (MDA-N) [µM]	TGI (NCI-H460 lung) [µM]	TGI (NCI-H522 lung) [µM]	TGI (UACC-257 melanoma) [µM]	TGI (HOP-92 NSCLC) [µM]	TGI (HCT-15 colon) [µM]	GI50 (CCRF-CEM leukemia) [µM]	GI50 (HCC-2998 colon) [µM]	GI50 (HCT-15 colon) [µM]	GI50 (HOP-92 NSCLC) [µM]	GI50 (HT29 colon) [µM]	GI50 (NCI-H460 lung) [µM]	GI50 (NCI-H522 lung) [µM]	GI50 (UACC-257 melanoma) [µM]
O=C(CN1CCCC1=O)CS(=O)(=O)c1ccccc1	> 100	> 100	> 100	> 100	> 100	> 100	> 100										
COc1cc(C2c3cc4c(cc3OC(NNC(N)=O)C2C)OCO4)cc(OC)c1OC (configuration not stated)	0.507	> 27.2	> 100		> 89.8	0.344	> 100	8.18									
Cc1ccccc1NC(=O)Cc1csc(N/N=C2\NC(=O)/C(=C/c3cccc([N+](=O)[O-])c3)S2)n1		27.3	> 100	> 100	29		41.9	38.1	29.3								
Fc1ccc(-c2sc(-c3ccsc3)cc2Cc2ccsc2)cc1	> 10	> 10	> 10	> 10			> 10	> 10	> 10								
COc1cc(C2S/C(=C/c3ccccc3)C(=O)N2Cc2ccccc2)cc(OC)c1OC (configuration not stated)	87.2	69.4	> 100	52.6		62.8	> 100	> 100	> 100								
O=P(O)(O)c1ccc(-c2ccc(I)cc2)cc1	> 100	> 100	> 100	> 100	> 100	> 100	> 100		> 100								
O=c1c2c3c(sc2nc2n1N=CN(c1ccccc1)C2)CCCC3	> 100	> 100	> 100	> 100	> 100	> 100	> 100	> 100	> 100								
CNC(=O)N(CCC#N)CCN(C(=O)NC)c1ccccc1	> 100	> 100	> 100	> 100	> 100	> 100	> 100	> 100	> 100								
COC(=O)CN(CC(=O)NCCCBr)C1CCCCC1N(CC(=O)OC)CC(=O)OC (configuration not stated)	> 100	> 100	> 100	> 100	> 100	> 100	> 100	> 100	> 100								
CC#C[C@]1(O)CCC2[C@@H]3CCC4=CC(=O)CCC4=C3[C@@H](c3ccc(N(C)C)cc3)C[C@@]21C (some centres not stated)	37.5		28.7	49.3	28.3		36.5	8.55	> 100								
COc1ccccc1NC(=S)N=Nc1c(O)[nH]c2ccccc12	> 100	> 100	> 100	> 100	> 100	> 100	> 100	> 100	> 100								
CCOC(=O)/C=C(/C(=O)OCC)n1cc(C)c(=O)n(Cc2cnnn2COCCOC(C)=O)c1=O	5.8	39.1	27.6	48.5	> 61.5	3.65	28.6	8.22	> 49.1								
Cc1ncc([N+](=O)[O-])n1CC[N+](C)([O-])CCCCn1ccnc1[N+](=O)[O-] (configuration not stated)	> 100		> 100	> 100	> 100	> 100	> 100		> 100								
Cc1nn(C(=O)c2ccccc2O)c2c1C(c1ccc(O)cc1O)SC(N)=N2 (configuration not stated)	> 10		> 10	> 10	> 10			> 10	> 10								
N[C@H]1c2c(Br)sc(Br)c2C(=O)[C@H]1O	6.63	27.5	30.8	30.1	35.6	8.97	29.7	38.9	24.3								
COc1ccc2c(c1)N(Cc1ccc(Cl)cc1)CCC2N1CCCC1=O (configuration not stated)	> 100	> 100	> 100		> 100	35.8	11.2	20.5	> 100	4.74	5.32	4	2.75	7.2	4.22	4.33	3.07
COC(=O)Nc1nc2ccc(S(=O)(=O)Nc3ccccn3)cc2[nH]1	54.2		> 100	> 100	> 100	> 100	93.5	> 100	> 100								
O=C1/C(=C/c2ccc(O)cc2)CCCC1CN1CCCCC1 (configuration not stated)	> 100	17.2	6.91	10.8	30.7	2.79	6.72	3.47	2.71								
CCC(C)(C)c1cc(O)c(C(C)(C)CC)cc1O		5.36	5.27		6.53	6.03	12.1	5.62	15.1		2.3	3.66	1.63	2.13	2.25	1.98	3.44
C[C@@]1(CCCCCCCCCCc2ccccc2)C[C@@]2(C)OC(=O)C[C@H]2OO1	3.34	3.41	31.5	3.96	5.06	4.12	4.55	2.16	44.3								
O=c1[nH]c2ccccc2c(O)c1Cc1ccccc1	> 100	> 100	> 100	> 100	> 100	> 100	> 100	> 100	> 100								
Cn1c(-c2ccc[se]2)ccc1-c1ccc(C=O)[se]1	14.1	> 53.5	> 100	> 100	24.2	35.2	3.5	> 82.1	> 100								
